# What was measured:
# [1] = Alternative aqueous infusion solutions of NUC-3373 (osmolarity, stability); type: physicochemical
# [2] = Stability of 100 mg/ml NUC-3373 surfactant solution; type: physicochemical
# Method: The successful development of the Diluent Solution to enable preparation of the NUC-1031 aqueous formulation prompted its development for an aqueous formulation of NUC-3373. An aqueous NUC-3373 formulation was developed by adding 6.7 ml of a 250 mg/ml solution of NUC-3373 in 80% DMA:20% 0.9% saline to 10 ml diluent solution to generate a 100 mg/ml NUC-3373 surfactant solution (see Table 4), prior to subsequent dilution into an infusion bag.
structure (smiles),measurement,setting,value
"C[C@H](NP(=O)(OC[C@H]1O[C@@H](n2cc(F)c(=O)[nH]c2=O)CC1O)Oc1cccc2ccccc12)C(=O)OCc1ccccc1 (stereo partly drawn) [NUC-3373, 5-fluoro-2′-deoxyuridine-5′-O-[1-naphthyl (benzoxy-L-alaninyl)] phosphate]",Osmolarity,"[1]; high dose (3,000 mg) NUC-3373 in 500 ml 0.9% saline infusion bag",524 mosm/1
same,Osmolarity,[1]; high dose NUC-3373 (10 mg/ml) using 0.45% saline,715 mosm/l H2O
same,Osmolarity,[1]; high dose NUC-3373 (10 mg/ml) using WFI,557 mosm/l H2O
same,Osmolarity,"[1]; high dose NUC-3373 (10 mg/ml; 3,000 mg) in 250 ml 0.9% saline",812 mosm/1
same,Assay content,"[2]; 0 hours, 5° C.",105.5 mg/mL
same,Purity,"[2]; 0 hours, 5° C.",96.1 % area
same,pH,"[2]; 0 hours, 5° C.",7.8
same,Assay content,"[2]; 0 hours, 20° C.",104.8 mg/mL
same,Purity,"[2]; 0 hours, 20° C.",96.2 % area
same,pH,"[2]; 0 hours, 20° C.",7.8
same,Assay content,"[2]; 8 hours, 5° C.",102.5 mg/mL
same,Purity,"[2]; 8 hours, 5° C.",96.2 % area
same,pH,"[2]; 8 hours, 5° C.",7.9
same,Assay content,"[2]; 8 hours, 20° C.",100.7 mg/mL
same,Purity,"[2]; 8 hours, 20° C.",96.1 % area
same,pH,"[2]; 8 hours, 20° C.",7.8
same,Assay content,"[2]; 24 hours, 5° C.",103.7 mg/mL
same,Purity,"[2]; 24 hours, 5° C.",96.1 % area
same,pH,"[2]; 24 hours, 5° C.",7.9
same,Assay content,"[2]; 24 hours, 20° C.",99.1 mg/mL
same,Purity,"[2]; 24 hours, 20° C.",96.1 % area
same,pH,"[2]; 24 hours, 20° C.",7.8
same,Assay content,"[2]; 48 hours, 5° C.",102.4 mg/mL
same,Purity,"[2]; 48 hours, 5° C.",96.1 % area
same,pH,"[2]; 48 hours, 5° C.",7.9
same,Assay content,"[2]; 48 hours, 20° C.",99.4 mg/mL
same,Purity,"[2]; 48 hours, 20° C.",96.2 % area
same,pH,"[2]; 48 hours, 20° C.",7.9
same,Stability,[2]; for 48 hours at 5° C. and 20° C.,stable

# — patent US12357652B2, “Formulations of phosphoramidate derivatives of nucleoside drugs” (priority 2015, dated 2025)
